US20020001565A1, “Radioprotective agents” (priority 2000, published 2002)

Tested on: CD2F 1 male mice
Experiment: 30-day survival of mice after a lethal dose of cobalt-60 radiation
Format: in vivo
Description: Control groups were administered saline and polyethylene glycol 400 (the vehicle for the genistein) prior to irradiation. Genistein (Sigma Chemical Co., St. Louis, Mo.) was administered 400 mg/kg either as a single dose or multiple dosages of 100 mg/kg each at various times ranging from 1 hour to 4 days before radiation, after irradiation, or both before and after radiation.
In subsequent studies, using the procedures and mice of Example 1, a single subcutaneous dose of 100 or 400 mg/kg genistein was administered 24 hr before 9.5 Gy radiation.

In the case of `O=c1c(-c2ccc(O)cc2)coc2cc(O)cc(O)c12` [genistein, 5,7-dihydroxy-3-(4-hydroxyphenyl)-4H-1 benzopyran-4-one], the 30-day survival (100 mg/kg orally daily for 4 days before and 4 days after irradiation, 9.5 Gy) is reported as 50%, the 30-day survival (genistein before and after irradiation, oral, 9.5 Gy cobalt-60, dose not given) is reported as 69% and the 30-day survival (genistein only after irradiation, oral, 9.5 Gy cobalt-60, dose not given) is reported as 0%. The 30-day survival (genistein only before radiation, oral, 9.5 Gy cobalt-60 at 0.6 Gy/min, dose not given) was “Forty-four”, the 30-day survival (multiple oral administration 100 mg/kg, 4 days before irradiation, 9.5 Gy) was 0% and the 30-day survival (multiple oral administration 100 mg/kg, after irradiation, 9.5 Gy) was 0%. The radioprotection (single dose 400 mg/kg orally 1 hr before 9.5 Gy radiation) was “did not confer any measurable radioprotection”, the radioprotection (single dose 400 mg/kg orally 24 hr before 9.5 Gy radiation) was “did not confer any measurable radioprotection” and the 30-day survival rate (single subcutaneous dose 100 mg/kg 24 hr before 9.5 Gy radiation) was 69%. The 30-day survival rate (single subcutaneous dose 400 mg/kg 24 hr before 9.5 Gy radiation) was 81%.
